Test results published in patent US20080274057A1, “Staudinger Reaction in Imaging and Therapy and Kits for Use in Imaging and Therapy” (KONINKLIJKE PHILIPS ELECTRONICS, N.V., priority 2005, published 2008).
Read-outs that look alike come from different tables or passages of the source.

Key:
A431 cells = details: for anti-proliferative activity (ranking): 72 hours incubation, ranking among pro-dox, pro-dox plus phosphine, and doxorubicin
Protocol: 12) Cell proliferation assay using A431 cells with prodrug 9 (pro-dox) in situ activated by triphenylphosphine.
The in vitro anti-cancer activity of prodrug 9 (pro-dox) was assessed by means of cytotoxicity assays. For these cellular experiments the A431 cell line was used. […] The addition of the prodrug in combination with phosphine should lead to a reduction in proliferation compared to the addition of pro-dox without phosphine, due to the release of doxorubicin by means of the staudinger reaction.
Cells were maintained at 37° C. in DMEM (InVitrogen), supplemented with 10% heat-inactivated fetal bovine serum and 0.05% glutamax (InVitrogen) in the presence of penicillin and streptomycin.
Doxorubicin (Toronto Research Chemicals) and pro-dox (9) were, prior to each experiment, freshly dissolved in DMF at 10 mM and subsequently serial diluted in pre-warmed culture medium. Triphenylphosphine-3,3′,3″-trisulfonic acid trisodium salt (Sigma) was dissolved in PBS at 10 mM and serial diluted in pre-warmed medium. Methylthiazolyldiphenyl-tetrazolium bromide, MTT (Sigma) was used as described by the manufacturer.
Cells were plated out in a 96 well plate (Nunc) at a density of 7500 cells/well, followed by addition of reagents the next day. After 72 hours incubation cell proliferation was assessed by means of a MTT assay. Briefly, MTT was dissolved in pre-warmed medium at 5 mg/ml, passed through a 0.22 μm filter and 50 μl was added to each well. Following an incubation period of 120 minutes the medium was gently aspirated. The formed formazan crystals were dissolved in 100 μl DMSO and the absorbance, or optical density (O.D.), was measured with a plate reader (BMG) at 560 nm. The inhibition of proliferation was determined by reporting the O.D. of the treated group (T) with the O.D. of the appropriate control group (C), and expressed as [(1-T/C)×100%].
Therefore, instead of adding the prodrug to the cell culture together with a single batch triphenylphosphine on day 2, the phosphine was added at fixed intervals from day 2 to day 4. Three phosphine dosing schemes were investigated: 5×10 μM, 5×30 μM, and 5×60 μM. The range of the concentrations used for the doxorubicin drugs was 0-0.01-0.1-0.3-1.0-10 μM.
The above phosphine-dosing scheme was compared to a single batch-dosing scheme at the same total amount of phosphine.

[1] = Activation of model azido-prodrug 4 by 3-(diphenylphosphino)benzenesulfonate (5), followed with 1H NMR
Protocol: 9) Activation of model azido-prodrug 4-azidobenzyl N-benzyl carbamate (4) by 3-(diphenylphosphino)benzenesulfonate (5) in two different media.
In DMF/H2O (3.5/1): Prodrug 4 (5.3 mg, 18.8 μmol) was dissolved in 952 μl DMF-d7 and 275 μl D2O. Phosphine 5 (12.1 mg, 33.2 μmol) was added and the reaction was followed with ^1H NMR. The reaction had run to completion within 14 hours as judged from the disappearance of the CH2 azidobenzyl signal at 4.83 ppm and the appearance of the CH2 signal of the corresponding aminobenzylalcohol (7) at 4.64 ppm.
In THF/H2O (1/1): Prodrug 4 (4.8 mg, 17.0 μmol) was dissolved in 275 μl THF-d8 and 275 μl D2O. Phosphine 5 (11.3 mg, 31.0 μmol) was added to the slightly yellow solution after which gas development was observed. The reaction was followed with ^1H NMR and had to run to 50% after 7 hours as judged from the disappearance of the CH2 benzyl signal at 4.38 ppm and the appearance of the CH2 signal of the corresponding free benzylamine (6) at 3.99 ppm.

[2] = for extent of activation reaction: 10 μM prodrug
Protocol: 11) Activation of the doxorubicin prodrug (9) followed with HPLC and LC-MS
The activation was carried out in the following way: a solution of prodrug in water or growth medium was mixed with a solution of triphenylphosphine-3,3′,3″-trisulfonic acid trisodium salt in water or growth medium. Samples were taken from the reaction mixture (at 37 C) every 2 hours and measured in the HPLC or LCMS. Several different concentrations and ratios prodrug/triphenylphosphine were used. The first activation experiment was done in water with a concentration of 100 μM for the prodrug and 200 μM for the phosphine, and monitored with HPLC.
The second activation was done at a 10-fold lower concentration, 10 μM for the prodrug and 20 μM for the phosphine, and monitored with LCMS.
The third and last activation was done in cell growth medium at 10 μM prodrug. […] During this experiment a fresh portion (60 μM) triphenylphosphine was added to the mixture twice a day.

Molecule	anti-proliferative activity (ranking) (A431 cells; MTT)	activity relative to pro-dox (A431 cells; 72 hours, MTT)	time until reaction had run to completion ([1]; DMF/H2O (3.5/1), prodrug 18.8 μmol, phosphine 5 33.2 μmol) [h]	extent of reaction (release of free benzylamine) ([1]; THF/H2O (1/1), after 7 hours, prodrug 17.0 μmol, phosphine 5 31.0 μmol) [%]	extent of activation reaction ([2]; 20 μM phosphine, after 24 hours, LCMS)	extent of activation reaction ([2]; cell growth medium, fresh 60 μM triphenylphosphine added twice a day, after 8 hours) [%]	time until reaction was complete ([2]; water, 37 C, 100 μM prodrug, 200 μM phosphine, HPLC) [h]	doxorubicin formed ([2]; water, 37 C, 100 μM prodrug, 200 μM phosphine, after 8 hours, HPLC) [%]	increase of activity over pro-dox alone (A431 cells; 72 hours, MTT, pro-dox with 60 μM repetitive dose (5×60 μM) of phosphine) [fold]	activation by a single dose of phosphine compared with sequential additions (A431 cells; identical total phosphine amounts)
COc1cccc2c1C(=O)c1c(O)c3c(c(O)c1C2=O)C[C@@](O)(C(=O)CO)C[C@@H]3O[C@H]1C[C@H](N)[C@H](O)[C@H](C)O1 [Doxorubicin, reference compound]	highest activity	2 orders of magnitude								
[N-]=[N+]=Nc1ccc(COC(=O)NCc2ccccc2)cc1 [prodrug 4, 4-azidobenzyl N-benzyl carbamate]			≤ 14	50						
Azidobenzyl carbamate Doxorubicin [prodrug 9]	lowest anti-proliferative activity				approximately 30%	85	20	15	33	not nearly as effective
